One test deals with T1, PKC isoenzyme δ (Homo sapiens, UniProt Q05655).
T1 construct: made in house; host or cells: baculovirus-insect cell expression system
Nature of the test: Protein kinase C inhibition assay, PKC isoenzyme δ. The test is classed as biochemical. Particulars: read-out: IC50 PKC δ. How it is done:
(§1) A protein kinase C (PKC) assay is designed to duplicate the in vivo conditions required for protein kinase C function. Therefore, pH, salt and cofactor concentrations are similar to physiologic levels. Either lysine rich histone H1 (H1) or Myelin basic protein (Mbp) are used in the assay as the phosphorylation acceptor-protein because they are readily available and serve as good substrates for protein kinase C. Enzyme was prepared from baculovirus-insect cell expression systems.
(§2) In the screening assay, phosphatidylserine (PS) and DAG were co-sonicated to form unilamellar and multilamellar vesicles. The concentration of lipids in the assay were suboptimal to maximize the detection potential of the assay for inhibitors or activators. Potential effector compounds were added to the assay in dimethylsulfoxide at four concentrations to give final inhibitor concentrations of 1, 10, 50, and 150 μM, respectively.
(§3) The assay was started with the addition of enzyme and stopped after 10 min by the addition of 25% trichloroacetic acid (TCA) and 1.0 mg/ml bovine serum albumin (BSA). The radioactive histone product was retained and washed on glass fiber filters that allow the unreacted P-ATP to pass through. The amount of phosphorylation was determined by measuring radioactivity with a scintillation counter. Controls were included in every assay to measure background activity in the absence of enzyme, activity in the absence of lipids, and the maximum enzyme activity with saturating levels of the activator lipids.
(§4) Results of the protein kinase C assay are shown in Table 4 in columns labeled α, βII, γ, δ, ε, and .zeta. which represent various PKC isoenzymes. Results are show as IC50, which is the concentration of test compound needed to inhibit 50% of the protein kinase C activity in controls.

The next test concerns the target T2, PKC isoenzyme ζ (Homo sapiens, UniProt Q05513).
T2 construct: made in house; host or cells: baculovirus-insect cell expression system
T2 sequence (Q05513 1-592): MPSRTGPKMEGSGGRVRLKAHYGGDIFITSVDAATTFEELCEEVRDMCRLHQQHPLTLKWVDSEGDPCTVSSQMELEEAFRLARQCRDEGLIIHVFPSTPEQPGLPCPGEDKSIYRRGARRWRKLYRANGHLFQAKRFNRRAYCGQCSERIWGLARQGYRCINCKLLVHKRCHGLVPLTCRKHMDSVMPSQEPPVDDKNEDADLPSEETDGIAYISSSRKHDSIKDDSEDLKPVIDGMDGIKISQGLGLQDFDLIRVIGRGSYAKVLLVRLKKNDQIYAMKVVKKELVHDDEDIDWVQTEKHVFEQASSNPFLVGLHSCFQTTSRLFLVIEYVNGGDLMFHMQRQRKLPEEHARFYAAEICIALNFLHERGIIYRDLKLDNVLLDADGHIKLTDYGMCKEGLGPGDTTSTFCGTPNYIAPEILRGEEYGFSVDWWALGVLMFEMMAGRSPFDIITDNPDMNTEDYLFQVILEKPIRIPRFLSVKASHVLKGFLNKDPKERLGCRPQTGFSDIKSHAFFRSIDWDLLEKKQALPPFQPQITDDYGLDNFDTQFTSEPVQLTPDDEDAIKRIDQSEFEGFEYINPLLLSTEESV
Nature of the test: Protein kinase C inhibition assay, PKC isoenzyme ζ. Type of test: biochemical. To be noted: read-out: IC50 PKC .zeta. On the procedure: as §1, §2, §3, §4

The next test has as its target T3, PKC isoenzyme γ (Homo sapiens, UniProt P05129).
T3 construct: made in house; host or cells: baculovirus-insect cell expression system
Nature of the test: Protein kinase C inhibition assay, PKC isoenzyme γ. The test is classed as biochemical. To be noted: read-out: IC50 PKC γ. How it is done:
as §1, §2, §3, §4

In the next test the target is T4, PKC isoenzyme ε (Homo sapiens, UniProt Q02156).
T4 construct: made in house; host or cells: baculovirus-insect cell expression system
T4 sequence (Q02156 1-737): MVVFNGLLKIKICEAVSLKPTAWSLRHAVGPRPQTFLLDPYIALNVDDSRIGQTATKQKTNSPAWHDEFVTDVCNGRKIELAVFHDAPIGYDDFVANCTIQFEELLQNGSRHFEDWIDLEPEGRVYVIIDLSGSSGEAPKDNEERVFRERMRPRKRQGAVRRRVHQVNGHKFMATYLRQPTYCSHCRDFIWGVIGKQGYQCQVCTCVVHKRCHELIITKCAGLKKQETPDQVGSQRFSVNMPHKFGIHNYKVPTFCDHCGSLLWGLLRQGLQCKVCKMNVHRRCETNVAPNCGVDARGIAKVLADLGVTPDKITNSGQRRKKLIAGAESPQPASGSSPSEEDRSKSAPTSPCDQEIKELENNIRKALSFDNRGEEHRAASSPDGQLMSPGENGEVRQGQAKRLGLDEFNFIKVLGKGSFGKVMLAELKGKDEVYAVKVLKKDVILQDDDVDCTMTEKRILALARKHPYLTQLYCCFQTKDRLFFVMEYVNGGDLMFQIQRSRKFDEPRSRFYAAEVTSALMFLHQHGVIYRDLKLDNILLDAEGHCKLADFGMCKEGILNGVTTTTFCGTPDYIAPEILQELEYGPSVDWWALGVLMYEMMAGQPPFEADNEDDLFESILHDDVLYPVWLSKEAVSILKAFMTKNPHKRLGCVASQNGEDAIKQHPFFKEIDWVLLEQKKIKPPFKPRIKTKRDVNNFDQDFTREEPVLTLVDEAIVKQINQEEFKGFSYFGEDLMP
Nature of the test: Protein kinase C inhibition assay, PKC isoenzyme ε. To be noted: read-out: IC50 PKC ε. The test is classed as biochemical. On the procedure: as §1, §2, §3, §4

Another test addresses T5, PKC isoenzyme α (Homo sapiens, UniProt P17252).
T5 construct: made in house; host or cells: baculovirus-insect cell expression system
Nature of the test: Protein kinase C inhibition assay, PKC isoenzyme α. The test is classed as biochemical. Particulars: read-out: IC50 PKC α. On the procedure:
as §1, §2, §3, §4

The next test deals with T6, PKC isoenzyme βII (Homo sapiens, UniProt P05771).
T6 construct: made in house; host or cells: baculovirus-insect cell expression system
T6 sequence (P05771 1-673 isoform P05771-2): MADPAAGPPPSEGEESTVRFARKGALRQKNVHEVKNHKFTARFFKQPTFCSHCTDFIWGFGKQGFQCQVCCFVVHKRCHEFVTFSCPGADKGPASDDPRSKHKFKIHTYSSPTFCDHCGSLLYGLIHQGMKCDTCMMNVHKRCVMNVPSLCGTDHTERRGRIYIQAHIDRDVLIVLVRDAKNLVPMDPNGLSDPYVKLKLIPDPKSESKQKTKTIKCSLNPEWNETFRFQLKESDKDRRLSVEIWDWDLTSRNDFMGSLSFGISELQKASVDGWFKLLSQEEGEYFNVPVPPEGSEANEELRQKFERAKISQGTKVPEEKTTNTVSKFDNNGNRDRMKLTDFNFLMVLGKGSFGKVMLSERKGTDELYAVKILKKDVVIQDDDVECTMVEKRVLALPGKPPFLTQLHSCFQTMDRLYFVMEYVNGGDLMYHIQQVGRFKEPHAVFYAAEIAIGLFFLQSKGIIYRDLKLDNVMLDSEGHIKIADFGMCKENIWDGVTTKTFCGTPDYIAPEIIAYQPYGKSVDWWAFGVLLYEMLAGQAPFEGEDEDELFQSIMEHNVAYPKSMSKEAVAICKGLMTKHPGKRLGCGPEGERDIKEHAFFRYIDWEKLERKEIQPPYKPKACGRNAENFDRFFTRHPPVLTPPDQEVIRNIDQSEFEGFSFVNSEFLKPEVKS
Nature of the test: Protein kinase C inhibition assay, PKC isoenzyme βII. Type of test: biochemical. Particulars: read-out: IC50 PKC βII. On the procedure: as §1, §2, §3, §4

The test system of test [1] is normal human epidermal keratinocyte (NHEK) cells. Kind of test: Human Keratinocyte Inhibition (3H TdR Assay). The test is classed as cell-based. To be noted: 24 h incubation, 3H-thymidine. On the procedure:
Proliferating normal human epidermal keratinocyte (NHEK) cells were obtained in the second passage and grown in keratinocyte growth medium, KGM (Clonetics, Inc.) at 37° C., 5% CO2. The cells were trypsinized (0.25%), centrifuged, counted with a hemocytometer, and seeded at a concentration of 5000 cells in 100 μl well in a 96-well microtiter plate.
After the cells were allowed to attach to the microtiter plate overnight, test agents were titrated to determine the dose response. This was done by adding each test agent dilution in quadruplicate to the plate at 2× final concentration in 100 μl to bring the total volume of each well to 200 μl. Culture media with no test agent added was used as a normal control. Duplicate sets of plates were established.
After twenty-four hours of incubation with test compounds 37° C. and 5% CO2, […] of 0.01 mCi/ml tritiated thymidine (New England Nuclear) was added to each well and allowed to incubate for another 4 hours under the same conditions.
Supernatant was aspirated and discarded and […] of 0.05% trypsin (Gibco) was added to each cell. Cells were checked microscopically to determine detachment from surfaces and then harvested onto glass filters. The filters were then placed in vials to which scintillant was added and counted for one minute each in a scintillation counter.
Determine mean cpm of wells containing test agent (n=4) or KGM control (n=16). Calculate % of control by the formula: [formula]
The IC50, or connection necessary to inhibit 50% of control, of each test agent was determined by plotting % control vs log concentration for each dilution and then linear forecasting the 50% control value onto the X axis on a Quatro Pro computer program. Only regression values with a correlation coefficient greater than 0.9 were considered acceptable.

Test [2] concerns the target cAMP dependent protein kinase (PKA). Kind of test: cAMP Dependent Protein Kinase (PKA) Assay. Type of test: biochemical. How it is done: Compounds found to be inhibitors of protein kinase C were tested for inhibitory activity against cAMP dependent protein kinase (PKA). This enzyme, like protein kinase C, plays an important role in cell-cell communication and is activated by a second messenger, cAMP. Secondary screening against PKA is useful for ascertaining the selectivity of the compounds of the invention.
The catalytic subunit of PKA (Sigma Chemical Company, St. Louis, Mo.) was mixed with buffer before addition of the inhibitor in dimethylsulfoxide (DMSO). Potential inhibitor compounds were added to the assay in dimethylsulfoxide at two concentrations to give final inhibitor concentrations of 30 and 150 μM, respectively. The assay was started by the addition of ^32 P-ATP and the reaction was allowed to proceed for 10 min before stopping with 25% trichloroacetic acid (TCA) and 1.0 mg/ml bovine serum albumin (BSA). Phosphorylated protein was then isolated by filtration and the radioactivity was counted by a beta scintillation counter.

The next test deals with human neutrophils. Nature of the test: Neutrophil Superoxide Anion (O2) Release Assay, PMA-stimulated. Particulars: Homo sapiens, Neutrophil, read-out: Neutrophil Superoxide Release IC50. The test is classed as cell-based. An excerpt:
Phorbol-12,13-myristate acetate (PMA) stimulates O2 production in human neutrophils which in turn reduces cytochrome C. Reducing cytochrome C increases absorbance and the change in optical density (OD) is proportional to the amount of O2 produced by PMA stimulation. Inhibition is expressed as an IC50 value and is the amount of test compound that will inhibit fifty percent of the PMA-stimulated respiratory outburst, i.e. O2^31 production (Lherer et al. (1981) J. Clinical lnvest. 68:1314; Roberts et al. (1982) J. Immunological Methods 49:193).
Human donor blood in 0.38% Sodium Citrate was centrifuged for 10 minutes at 160 ×g at room temperature. Platelet-rich plasma was removed leaving the buffy coat and the red cell-enriched fraction. Saline with 0.38% Sodium Citrate was added to this fraction up to the original blood volume. The enriched blood sample was diluted 1:1 (v:v) with 3% dextran T500 (Pharmacia) in normal saline and placed in a 60 cc syringe, inverted over a beaker and allowed to settle 30 minutes at room temperature.
Leukocyte-enriched plasma was removed from the syringe, placed into 50 ml polypropylene conical centrifuge tubes and underlaid with 15-20 ml Lymphocyte Separation Medium (LSM Organon Technica). The tubes were centrifuged for 40 minutes at 500×g at room temperature. The plasma, buffy coat and LSM were aspirated off the pellets which contained red blood cells and neutrophils.
The pellets were vortexed and 10 ml ice-cold 0.2% NaCl was added to lyse the red blood cells while vortexing again for 10 seconds. Ice-cold 1.6% NaCl was added while vortexing for 10 seconds. The cells were combined from multiple tubes, centrifuged 10 min at 400×g at 4° C. This red cell lysis was repeated and the resulting neutrophil pellet was washed once in Reaction HBSS (GIBCO, HBSS with Ca^++ and Mg^++,.238% HEPES, 0.1% dextrose, 0.1% RIA grade bovine serum albumin, PH 7.2). The cells were resuspended in 1/5 the original blood volume with Reaction HBSS, counted and adjusted to 4.0×10^6 cells/ml at 4° C.
Duplicate samples of neutrophils were tested in 12×75 mm polypropylene tubes containing 0.25 ml of the neutrophil suspension. Cytochrome C mix (0.25 ml, 6.0 mg/ml cytochrome C type IV (Sigma) plus 1200 U/ml bovine liver catalase (Sigma) in Reaction HBSS described above) was added. PMA was added at 2×the final concentration in 0.5 ml of Reaction HBSS. PMA final test concentration were 0.0, 0.3, 9.0, 27.0, and 81.0 ng/ml. The tubes were vortexed and incubated for 10 minutes at 37° C. with shaking. After chilling for 5 minutes at 4° C. and centrifuging for 10 minutes at 4° C., 550×g, 0.5 ml of supernatant was removed from each tube. Normal saline (0.5 ml) was added to each 0.5 ml sample of supernatant and the absorbance of each sample was read at 550 nm on a spectrophotometer (Shimadzu). The PMA concentration which gives nearly maximal stimulation of superoxide release was determined.
The test samples of neutrophils were prepared as in the PMA dose response through addition of cytochrome C mix. Then 0.4 ml of Reaction HBSS as a control or test agent at 2.5×final test concentration was added and the tubes were vortexed and incubated for 30 minutes at 37° C. with shaking. PMA (0.1 ml) was added at a 10× concentration of the final concentration determined above. The samples were incubated for 10 minutes at 37° C. with shaking, chilled for 5 minutes at 4° C., and then centrifuged for 5 minutes at 550×g at 4° C. The supernatant (0.5 ml) was diluted with 0.5 ml normal saline as above and the absorbance was then determined at 550 nm. The percent change was calculated as follows: [formula] D-sphingosine (Sigma) used as reference standard.
Human neutrophils were first isolated according to Lherer et al. ((1981) J. Clinical Invest. 68:1314) and then tested for stimulation of superoxide anion release with phorbol--12,13-myristate acetate (PMA) in a dose-dependent manner. […]

This note sets out measurements from patent US5292737A, “N,N'-bis(sulfonamido)-2-amino-4-iminonaphthalen-1-ones and N,N'-bis(amido)-2-amino-4-iminonaphthalen-1-ones” (Sphinx Pharmaceuticals Corporation, priority 1992, dated 1994).

Read-outs that look alike come from different tables or passages of the source.

T1 sequence (Q05655 whole entry): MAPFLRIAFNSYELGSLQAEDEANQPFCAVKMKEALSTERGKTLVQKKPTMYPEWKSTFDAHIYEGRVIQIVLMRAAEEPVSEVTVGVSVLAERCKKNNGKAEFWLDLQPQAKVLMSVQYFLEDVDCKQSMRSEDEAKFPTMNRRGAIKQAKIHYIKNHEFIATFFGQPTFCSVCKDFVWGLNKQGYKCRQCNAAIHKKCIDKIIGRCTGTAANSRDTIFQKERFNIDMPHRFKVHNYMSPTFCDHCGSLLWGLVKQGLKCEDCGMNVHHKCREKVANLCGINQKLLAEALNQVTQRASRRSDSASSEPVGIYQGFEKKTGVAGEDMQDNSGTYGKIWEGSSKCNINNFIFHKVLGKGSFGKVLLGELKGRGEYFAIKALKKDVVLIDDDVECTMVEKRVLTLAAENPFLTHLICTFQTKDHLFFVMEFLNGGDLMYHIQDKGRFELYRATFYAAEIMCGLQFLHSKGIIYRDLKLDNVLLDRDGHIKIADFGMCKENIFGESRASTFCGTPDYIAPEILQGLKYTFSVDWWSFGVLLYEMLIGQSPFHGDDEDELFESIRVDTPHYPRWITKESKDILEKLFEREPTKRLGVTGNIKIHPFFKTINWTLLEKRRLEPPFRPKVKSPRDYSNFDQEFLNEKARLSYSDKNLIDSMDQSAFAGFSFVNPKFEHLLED

Consider `N=C(N)NS(=O)(=O)c1ccc(N=C2C=C(Nc3ccc(S(=O)(=O)NC(=N)N)cc3)C(=O)c3ccccc32)cc1` [Compound 3ab], for which the IC50 (in general, the concentration at which inhibition is half-maximal) was greater than 150 µM at PKC isoenzyme δ; greater than 150 µM on PKC isoenzyme ζ; 76 µM at PKC isoenzyme γ; greater than 150 µM at PKC isoenzyme ε; 125 µM on PKC isoenzyme α; greater than 150 µM on PKC isoenzyme βII.
For the molecule `Cc1noc(NS(=O)(=O)c2ccc(N=C3C=C(Nc4ccc(S(=O)(=O)Nc5onc(C)c5C)cc4)C(=O)c4ccccc43)cc2)c1C` [Compound 6b], the IC50 was 16.7 µM in test [1]; 39 µM on PKC isoenzyme δ; 29 µM on PKC isoenzyme γ; greater than 150 µM at PKC isoenzyme ε; greater than 150 µM in test [2] (catalytic subunit of PKA); 35 µM on PKC isoenzyme α. The IC50 on PKC isoenzyme βII came to 50 µM. Moreover, the “effect on PKA activity” value in [2] (result in words) is given as “did not effect on PKA activity”.
As for `O=C1C(Nc2ccc(S(=O)(=O)Nc3ncccn3)cc2)=CC(=Nc2ccc(S(=O)(=O)Nc3ncccn3)cc2)c2ccccc21` [Compound 6k], the IC50 stood at 35 µM on PKC isoenzyme ζ, 6.83 µM in the test on human neutrophils (PMA-stimulated human neutrophils), 16 µM at PKC isoenzyme γ and 116 µM on PKC isoenzyme α.
On to `CCCCCCCCCCCCCCCCNS(=O)(=O)c1ccc(N=C2C=C(Nc3ccc(S(=O)(=O)NCCCCCCCCCCCCCCCC)cc3)C(=O)c3ccccc32)cc1` [Compound 6o], for which the IC50 is 102 µM on PKC isoenzyme δ; greater than 150 µM on PKC isoenzyme ζ; 94 µM at PKC isoenzyme γ; 100 µM on PKC isoenzyme α; 99 µM at PKC isoenzyme βII.
For `CCCCCCCCCCCCC/C=C/[C@@H](O)[C@@H](N)CO` [D--sphingosine, D-sphingosine, reference compound], the IC50 in the test with human neutrophils was found to be 2.85 µM.
